Source: the NIST ThermoML archive (doi:10.1021/acs.jced.8b00370)
± gives the expanded uncertainty stated by the source.

Assay: mn = molality of the nth substance listed, in mol/kg
Conditions: 100 kPa, Liquid; for speed of sound: Frequency=3 MHz, Single path-length method; for mass density: Vibrating tube method

OC[C@H]1O[C@@](CO)(O[C@H]2O[C@H](CO)[C@@H](O)[C@H](O)[C@H]2O)[C@@H](O)[C@@H]1O [D-sucrose] + O
speed of sound (288.15 K, m1 = 0.1002): 1476.3 ± 3 m/s | speed of sound (288.15 K, m1 = 0.2007): 1486.2 ± 3 m/s | speed of sound (288.15 K, m1 = 0.3011): 1496 ± 3 m/s | speed of sound (288.15 K, m1 = 0.4034): 1506 ± 3 m/s | speed of sound (288.15 K, m1 = 0.4996): 1515.3 ± 3 m/s | speed of sound (288.15 K, m1 = 0.6018): 1525.2 ± 3 m/s | speed of sound (288.15 K, m1 = 0.7022): 1534.9 ± 3 m/s | speed of sound (288.15 K, m1 = 0.7978): 1543.9 ± 3 m/s | speed of sound (288.15 K, m1 = 0.8955): 1552.9 ± 3 m/s | speed of sound (288.15 K, m1 = 0.9969): 1562.2 ± 3 m/s | mass density (288.15 K, m1 = 0.1002): 1012.01 ± 2 kg/m3 | mass density (288.15 K, m1 = 0.2007): 1024.37 ± 2 kg/m3 | mass density (288.15 K, m1 = 0.3011): 1036.19 ± 2 kg/m3 | mass density (288.15 K, m1 = 0.4034): 1047.72 ± 2 kg/m3 | mass density (288.15 K, m1 = 0.4996): 1058.12 ± 2 kg/m3 | mass density (288.15 K, m1 = 0.6018): 1068.73 ± 2 kg/m3 | mass density (288.15 K, m1 = 0.7022): 1078.71 ± 2 kg/m3 | mass density (288.15 K, m1 = 0.7978): 1087.87 ± 2 kg/m3 | mass density (288.15 K, m1 = 0.8955): 1096.86 ± 2 kg/m3 | mass density (288.15 K, m1 = 0.9969): 1105.83 ± 2 kg/m3 | speed of sound (298.15 K, m1 = 0.1002): 1506 ± 3 m/s | speed of sound (298.15 K, m1 = 0.2007): 1515 ± 3 m/s | speed of sound (298.15 K, m1 = 0.3011): 1524 ± 3 m/s | speed of sound (298.15 K, m1 = 0.4034): 1533.2 ± 3 m/s | speed of sound (298.15 K, m1 = 0.4996): 1541.7 ± 3 m/s | speed of sound (298.15 K, m1 = 0.6018): 1550.6 ± 3 m/s | speed of sound (298.15 K, m1 = 0.7022): 1559.3 ± 3 m/s | speed of sound (298.15 K, m1 = 0.7978): 1567.4 ± 3 m/s | speed of sound (298.15 K, m1 = 0.8955): 1575.6 ± 3 m/s | speed of sound (298.15 K, m1 = 0.9969): 1583.8 ± 3 m/s | mass density (298.15 K, m1 = 0.1002): 1009.81 ± 2 kg/m3 | mass density (298.15 K, m1 = 0.2007): 1022.04 ± 2 kg/m3 | mass density (298.15 K, m1 = 0.3011): 1033.73 ± 2 kg/m3 | mass density (298.15 K, m1 = 0.4034): 1045.13 ± 2 kg/m3 | mass density (298.15 K, m1 = 0.4996): 1055.43 ± 2 kg/m3 | mass density (298.15 K, m1 = 0.6018): 1065.92 ± 2 kg/m3 | mass density (298.15 K, m1 = 0.7022): 1075.81 ± 2 kg/m3 | mass density (298.15 K, m1 = 0.7978): 1084.86 ± 2 kg/m3 | mass density (298.15 K, m1 = 0.8955): 1093.77 ± 2 kg/m3 | mass density (298.15 K, m1 = 0.9969): 1102.65 ± 2 kg/m3 | speed of sound (308.15 K, m1 = 0.1002): 1528.2 ± 3 m/s | speed of sound (308.15 K, m1 = 0.2007): 1536.5 ± 3 m/s | speed of sound (308.15 K, m1 = 0.3011): 1544.7 ± 3 m/s | speed of sound (308.15 K, m1 = 0.4034): 1553.1 ± 3 m/s | speed of sound (308.15 K, m1 = 0.4996): 1561 ± 3 m/s | speed of sound (308.15 K, m1 = 0.6018): 1569.3 ± 3 m/s | speed of sound (308.15 K, m1 = 0.7022): 1577.2 ± 3 m/s | speed of sound (308.15 K, m1 = 0.7978): 1584.8 ± 3 m/s | speed of sound (308.15 K, m1 = 0.8955): 1592.3 ± 3 m/s | speed of sound (308.15 K, m1 = 0.9969): 1600.1 ± 3 m/s | mass density (308.15 K, m1 = 0.1002): 1006.68 ± 2 kg/m3 | mass density (308.15 K, m1 = 0.2007): 1018.8 ± 2 kg/m3 | mass density (308.15 K, m1 = 0.3011): 1030.39 ± 2 kg/m3 | mass density (308.15 K, m1 = 0.4034): 1041.69 ± 2 kg/m3 | mass density (308.15 K, m1 = 0.4996): 1051.89 ± 2 kg/m3 | mass density (308.15 K, m1 = 0.6018): 1062.29 ± 2 kg/m3 | mass density (308.15 K, m1 = 0.7022): 1072.09 ± 2 kg/m3 | mass density (308.15 K, m1 = 0.7978): 1081.07 ± 2 kg/m3 | mass density (308.15 K, m1 = 0.8955): 1089.9 ± 2 kg/m3 | mass density (308.15 K, m1 = 0.9969): 1098.71 ± 2 kg/m3 | speed of sound (318.15 K, m1 = 0.1002): 1544 ± 3 m/s | speed of sound (318.15 K, m1 = 0.2007): 1551.6 ± 3 m/s | speed of sound (318.15 K, m1 = 0.3011): 1559.1 ± 3 m/s | speed of sound (318.15 K, m1 = 0.4034): 1566.7 ± 3 m/s | speed of sound (318.15 K, m1 = 0.4996): 1574.3 ± 3 m/s | speed of sound (318.15 K, m1 = 0.6018): 1581.7 ± 3 m/s | speed of sound (318.15 K, m1 = 0.7022): 1589.3 ± 3 m/s | speed of sound (318.15 K, m1 = 0.7978): 1596.1 ± 3 m/s | speed of sound (318.15 K, m1 = 0.8955): 1603.2 ± 3 m/s | speed of sound (318.15 K, m1 = 0.9969): 1611 ± 3 m/s | mass density (318.15 K, m1 = 0.1002): 1002.77 ± 2 kg/m3 | mass density (318.15 K, m1 = 0.2007): 1014.82 ± 2 kg/m3 | mass density (318.15 K, m1 = 0.3011): 1026.34 ± 2 kg/m3 | mass density (318.15 K, m1 = 0.4034): 1037.58 ± 2 kg/m3 | mass density (318.15 K, m1 = 0.4996): 1047.73 ± 2 kg/m3 | mass density (318.15 K, m1 = 0.6018): 1058.07 ± 2 kg/m3 | mass density (318.15 K, m1 = 0.7022): 1067.82 ± 2 kg/m3 | mass density (318.15 K, m1 = 0.7978): 1076.72 ± 2 kg/m3 | mass density (318.15 K, m1 = 0.8955): 1085.49 ± 2 kg/m3 | mass density (318.15 K, m1 = 0.9969): 1094.23 ± 2 kg/m3
